Laboratory results: US20220169672A1, “COMPOUNDS FOR TARGETED THERAPIES OF CASTRATION RESISTANT PROSTATE CANCER” (Purdue Research Foundation, priority 2019, published 2022)
Read-outs that look alike come from different tables or passages of the source.

Legend:
[1] = Cytotoxicity in normal prostatic epithelial RWPE-1 cells; settings: human
Method: (§1) To identify initial lead(s), we first tested all ten drugs in vitro in human prostate cancer LNCaP and CRPC C4-2 cells to see their growth inhibition effect.
(§2) The LNCaP, C4-2 & RWPE-1 cell lines were provided by Professor Timothy Ratliff (Purdue University Center for Cancer Research, USA). All these cells were and maintained at 37° C. with 5% CO2 atmosphere in a humidified incubator following American Type Culture Collection (ATCC) protocol. LNCaP cells were grown in RPMI-1640 (Gibco) supplemented with 10% FBS (Atlanta Biologics), 20 mM HEPES and 1% penicillin/streptomycin (Invitrogen). C4-2 cells were grown in 4:1 DMEM/F12-K medium (Gibco) supplemented with 10% FBS (Atlanta Biologics), 1% penicillin/streptomycin (Invitrogen), 3 mg/mL sodium bicarbonate, 5 μg/mL insulin, 1.36 ng/mL triiodothyronine, 5 μg/mL transferrin, 0.25 μg/mL biotin and 25 μg/mL adenine. For normal growth, RWPE-1 cells were maintained in Keratinocyte Serum Free Medium (K-SFM) (Invitrogen) supplemented with 0.05 mg/mL bovine pituitary extract (BPE) and 5 ng/mL epidermal growth factor (EGF). […] For experiments, cells were used from 3 to 12 passages from thawing.
(§3) The cell proliferation experiment was carried out by the ‘Cell Titer-Blue Cell Viability Assay,’ In this assay, approximately 5,000 cells/well were seeded in 100 μL growth media in poly-L-lysine coated 96-well plates. Next day, the cells were treated with additional 100 μL of various concentrations of the test compounds or DMSO-growth media as untreated control for 6 days in a humidified incubator at 37° C. and 5% CO2 atmosphere. 10 μL ‘Cell Titer-Blue Reagent’ was added directly to each well after 6 days and the plates were incubated for 3 h at 37° C. to allow cells to convert resazurin to resorufin, and the fluorescent signal was measured at 590 nm using a multiplate ELISA reader (Bio-Tek Synergy HT plate reader, Bio-Tek, Winooski, Vt.). The percentage of viable cells in a compound-treated sample was calculated by considering the absorbance of the DMSO-growth media treated sample as 100%. Data was analysed and IC50 value was calculated using GraphPad Prism Software. All experimental points were done in triplicate and experiments were repeated at least thrice.
(§4) The cell viability assay was performed using a standard methyl thiazolyldiphenyl tetrazolium bromide (MTT) assay. In this assay, approximately 5,000 cells/well were seeded in 100 μL growth media in poly-L-lysine coated 96-well plates. After 1 day of plating, the cells were treated with additional 100 μL of various concentrations of the test compounds or DMSO-growth media as untreated control for 3 days more in a humidified incubator at 37° C. and 5% CO2 atmosphere. After 3 days, the culture medium was replaced with 100 μL of MTT solution (using 1 mg/ml stock in growth media) per well and further incubated at 37° C. for 3-4 h. To dissolve the formazan crystals formed in each well by mitochondrial reductase from live cells, 100 μL DMSO was added in each well and shaked for 30 min at RT using an orbital shaker. The absorbance of each well was measured at 570 nm using a multiplate ELISA reader (Bio-Tek Synergy HT plate reader, Bio-Tek, Winooski, Vt.). The percentage of viable cells in a compound-treated sample was calculated by considering the absorbance of the DMSO-growth media treated sample as 100%. All experimental points were done in triplicate and experiments were repeated at least thrice.

[2] = system: LNCaP cells; assay: In vitro scratch assay, LNCaP cell migration; type: cell-based, human; settings: no treatment 4.8 μm/h
Text: (§5) We evaluated effects of the active leads on the cancer cell migration—as most often, prostate cancer cell metastasizes to bone leading to the advanced prostate cancer. We performed the well developed in vitro scratch assay to measure both LNCaP and C4-2 cell's migration in presence of the treatments of all these active synthetic compounds. We calculated the migration speed based on the distance travelled/h. The LNCaP cells with no treatment migrated at a speed of 4.8 μm/h, whereas, treatment with 1, 2, 3 and 4 led to a slower rate (2.2, 3.5, 2.6 and 3.7 μm/h respectively) of migration; almost half of the migration speed as compared to that of the non-treated cells. The C4-2 cells with no treatment migrated at a speed of 6.5 μm/h whereas, treatment with 1, 2, 3 and 4 led to a slower rate (2.4, 3.3, 3.9 and 2.5 μm/h respectively) of migration (FIGS. 3D-3E). Since migration is the first step towards invasion and metastasis of cancer cells 1, 2, 3 and 4 might as well interfere with the metastasis process and lead 1 was found as the most efficient among these based on the migration speed rate in both the cells.

[3] = mouse liver microsomes, 3 μM, 37° C., 60 min
Method: In this assay, the lead compounds were incubated with the respective microsomes at 37° C. and the incubated mixture was analyzed by LC-MS/MS to quantify the remaining parent molecule.
All the test compounds were incubated in duplicate at 3 μM concentration with mouse and human liver microsomes at 37° C. The reaction mixture contained microsomal enzyme in 100 mM potassium phosphate buffer of pH 7.4. Warfarin and verapamil were used as negative and positive control in this assay. After 0 min and 60 min incubation, aliquots were removed from each experimental and control reaction and mixed with an equal volume of ice-cold Stop Solution (0.3% acetic acid in acetonitrile). The samples were centrifuged to remove precipitated protein, and the supernatants were analyzed by LC-MS/MS to quantify the remaining parent molecule. Data represents % remaining as compared to the time zero concentration as 100%.

[4] = system: RWPE-1 cells; assay: Cytotoxicity in normal prostatic epithelial RWPE-1 cells; settings: read-out: cytotoxicity IC50; RWPE-1 normal cells
Method: as §1, §2, §3, §4

[5] = biological target: T1, androgen receptor (AR) (Homo sapiens, UniProt P10275, T878A); assay: Western blot of AR expression in C4-2 cell lysates; type: cell-based; settings: C4-2 cells, 1 μM, 24 h, compared to vehicle and other treatments including ABI
T1 construct: we performed western blot analysis of LNCaP and C4-2 cells' lysates after treated with the indicated drugs/compounds; endogenous in cells; host or cells: C4-2
T1 sequence (P10275 whole entry T878A): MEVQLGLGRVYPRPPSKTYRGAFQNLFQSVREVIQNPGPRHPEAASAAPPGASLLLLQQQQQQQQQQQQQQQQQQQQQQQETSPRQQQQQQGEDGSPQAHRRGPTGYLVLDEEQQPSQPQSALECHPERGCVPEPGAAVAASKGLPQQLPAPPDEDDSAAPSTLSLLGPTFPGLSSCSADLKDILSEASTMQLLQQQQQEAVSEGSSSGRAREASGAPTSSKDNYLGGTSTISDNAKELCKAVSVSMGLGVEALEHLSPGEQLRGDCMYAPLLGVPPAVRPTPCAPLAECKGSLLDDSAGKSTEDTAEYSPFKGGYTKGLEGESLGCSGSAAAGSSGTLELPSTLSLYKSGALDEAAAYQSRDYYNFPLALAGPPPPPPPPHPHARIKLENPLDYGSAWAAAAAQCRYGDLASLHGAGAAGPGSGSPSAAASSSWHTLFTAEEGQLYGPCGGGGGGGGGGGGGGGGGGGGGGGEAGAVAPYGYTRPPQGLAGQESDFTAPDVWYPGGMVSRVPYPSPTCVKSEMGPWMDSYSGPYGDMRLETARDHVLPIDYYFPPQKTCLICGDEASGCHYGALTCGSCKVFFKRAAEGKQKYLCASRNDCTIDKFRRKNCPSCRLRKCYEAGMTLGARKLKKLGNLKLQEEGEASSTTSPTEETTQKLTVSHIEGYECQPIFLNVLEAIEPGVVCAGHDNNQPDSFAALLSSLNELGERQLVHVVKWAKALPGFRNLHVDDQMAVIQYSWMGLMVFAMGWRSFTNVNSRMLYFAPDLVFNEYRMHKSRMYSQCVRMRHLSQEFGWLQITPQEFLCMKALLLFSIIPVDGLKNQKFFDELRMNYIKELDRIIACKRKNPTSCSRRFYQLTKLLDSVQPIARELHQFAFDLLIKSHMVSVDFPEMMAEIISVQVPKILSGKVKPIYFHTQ
Method: First, 0.5×10^6 cells/well were seeded in 6-well plate coated with 0.01% poly-L-lysine. Next day, cells were treated with 1 μM concentrations of drugs/compounds or 0.01% DMSO-growth media as vehicle control and the treatment was continued for 24 h in a humidified incubator at 37° C. and 5% CO2 atmosphere. Following treatment, cells were washed with cold PBS and lysed in TBSN buffer (20 mmol/L Tris, pH 8.0, 150 mmol/L NaCl, 1.5 mmol/L EDTA, 5 mmol/L EGTA, 0.5% Nonidet P-40, and 0.5 mmol/L Na3VO4) supplemented with 1× protease inhibitor cocktail tablets to obtain cellular lysates. The protein concentration of the whole cell lysate was quantified by Pierce BCA Protein Assay (Thermo Scientific). The lysate was run on 10% SDS-PAGE gel (40 μg of protein per lane) and β-actin (clone 8H10D10, Cell Signaling Technology) was used as a loading control. Proteins were transferred onto PVDF membrane and the nonspecific binding was blocked using 5% milk in PBS-T (0.05% Tween-20 in PBS buffer) for 1 h. […] Protein expression was normalized to β-actin and densitometry was calculated using ImageJ Software.

[6] = system: C4-2 cells; assay: Cell proliferation / growth inhibition in CRPC C4-2 cells; type: cell-based, human
Method: as §1
We assessed anti-cancer activity of the synthetic molecules in prostate cancer cell lines as well as toxicity of the active molecules in normal human cell line.
as §2, §3

[7] = system: LuCaP35CR xenografts; assay: LuCaP35CR patient derived xenograft (PDX) mice model
[8] = system: C4-2 cells; assay: In vitro scratch assay, C4-2 cell migration; type: cell-based, human; settings: no treatment 6.5 μm/h
Text: as §5

[9] = system: LNCaP cells; assay: Cell proliferation / growth inhibition in LNCaP cells; type: cell-based; settings: Homo sapiens, read-out: growth inhibition IC50
Method: All these cells were and maintained at 37° C. with 5% CO2 atmosphere in a humidified incubator following American Type Culture Collection (ATCC) protocol. LNCaP cells were grown in RPMI-1640 (Gibco) supplemented with 10% FBS (Atlanta Biologics), 20 mM HEPES and 1% penicillin/streptomycin (Invitrogen). […] For experiments, cells were used from 3 to 12 passages from thawing.

[10] = C4-2 cells, read-out: growth inhibition / proliferation IC50
[11] = Homo sapiens, C4-2, read-out: growth inhibition / proliferation IC50
[12] = Homo sapiens, C4-2 cells, read-out: growth inhibition / proliferation IC50

Row | SMILES | migration speed [2] [μm/h] | IC50 [4] [µM] | IC50 [6, 10] [µM] | migration speed [8] [μm/h] | IC50 [1] [µM] | IC50 [6, 12] [µM] | further results
1 | C[C@]12CC[C@H](O)CC1=CC[C@@H]1[C@@H]2CC[C@]2(C)C(c3cccnc3)=CC[C@@H]12 [ABI, abiraterone, reference compound] |  |  |  |  |  |  | IC50 ([1]; RWPE-1 normal prostatic epithelial cells): 7.2 µM
2 | C#C[C@@]1(O)CC[C@@H]2[C@H]3[C@@H](CC[C@@]21C)[C@H]1CCC(=O)C=C1C[C@@H]3C [Compound 1] | 2.2 | 54.6 | 0.00072 | 2.4 |  |  | metabolic stability compared to ABI [3]: more stable than the current CRPC drug ABI; AR degradation (western blot), in words [5]: degraded AR efficiently; proliferation IC50 compared to ABI, in words ([6]; C4-2 cells): much less in C4-2 cells than that of ABI; average body weight ([7]; LuCaP35CR mice, over 16 days): did not change the average body weight; tumor growth ([7]; castrate mice bearing LuCaP35CR xenografts, 10 mg/kg, compared to vehicle): suppressed the tumor growth rapidly
3 | C#C[C@]1(O)CC[C@H]2[C@@H]3CCC4=CC(=O)CC[C@]4(C)[C@H]3CC[C@@]21C [Compound 2, Ethisterone] | 3.5 |  |  | 3.3 | 18.3 |  | IC50 [6, 11]: 0.011 µM
4 | C#C[C@@]1(O)CC[C@@H]2[C@H]3[C@@H](CC[C@@]21C)[C@H]1CCC(=NO)C=C1C[C@H]3C [Compound 3] | 2.6 |  |  | 3.9 |  | < 0.1 | 
5 | C#C[C@]1(O)CC[C@H]2[C@@H]3CCC4=CC(=NO)CC[C@@H]4[C@H]3CC[C@@]21C [Compound 4] | 3.7 |  |  | 2.5 |  |  | 
6 | CC[C@@]1(O)CC[C@@H]2[C@H]3[C@@H](CC[C@@]21C)[C@H]1CCC(=O)CC1C[C@@H]3C (some centres unmarked) [Compound 13] |  | 17.8 | 0.0035 |  |  |  | 
7 | C[C@H]1CC2=CC(=O)CC[C@@H]2[C@@H]2CC[C@@]3(C)[C@H](CC[C@]3(O)C#Cc3ccccc3N)[C@@H]21 [Compound 15] |  | 13.5 | 0.0041 |  |  |  | 
8 | C#C[C@]1(O)CC[C@H]2[C@@H]3CCC4=CC(=O)CC[C@@H]4[C@H]3CC[C@@]21CC [LEV, levonorgestrel, reference compound] |  |  |  |  | 59.7 | 0.0418 | IC50 ([9]; LNCaP cells): 0.181 µM
9 | C#C[C@]1(O)CC[C@H]2[C@@H]3CCC4=CC(=O)CC[C@@H]4[C@H]3CC[C@@]21C [NOR, norethisterone, reference compound] |  |  |  |  | 86.3 | 0.00704 | IC50 ([9]; LNCaP cells): 0.0325 µM
10 | C#C[C@]1(O)CC[C@H]2[C@@H]3[C@H](C)CC4=C(CCC(=O)C4)[C@H]3CC[C@@]21C [TIB, tibolone, reference compound] |  |  |  |  | 23.3 |  | IC50 ([9]; LNCaP): 0.0249 µM; IC50 [6, 11]: 0.00312 µM
